Measured values reported in patent US9408856B2, “Topical steroidal formulations” (Temple University—Of The Commonwealth System of Higher …, priority 2008, dated 2016).
In brackets after ≈: the same amount, converted by molar mass. Several values for one entry are separate records, joined by “and”; a condition that tells them apart may be missing. Identical values can stand only once.

Tests used:
[1] = Oral single dose PK experiment in mice; type: in vivo; details: 200 mg/kg oral single dose
Protocol: (§1) An oral single dose PK experiment in mice following administration of 200 mg/kg fluasterone was performed. The calculated AUC0-24 was 2,242 (ngXh/mL). A PK study was also performed in 12 human volunteers as part of a phase I fluasterone study. The volunteers received either 800 mg or 1600 mg fluasterone orally as a daily dose. The AUC0-24/mg dose was calculated.

[2] = system: TPA-stimulated epidermal DNA synthesis in mouse epidermis; assay: TPA-induced epidermal DNA synthesis in mouse epidermis, oral fluasterone; type: in vivo, CD-1 mice
Protocol: In dose-response experiments the anti-hyperplastic efficacy of fluasterone in TPA-treated mouse epidermis to determine bioavailability following different routes of administration was measured. Mice were treated with a single dose of fluasterone (either orally, subcutaneously, or transdermally) followed by a single application of TPA to the shaved back one hour latter. In case of transdermal administration, fluasterone is applied in a topical formulation to the shaved abdomen to allow for systemic absorption to the back of the animal. Twenty hours after TPA application, the mice are injected with 60 μCi of [3H] thymidine, sacrificed 20 minutes later, and a 2×2 cm2 of skin from the shaved back is excised and processed for the determination of the amount of [3H] thymidine incorporated per unit of epidermal DNA. (Hennings et. al., Cancer Res. 28:543-552, 1968).
Fluasterone suspensions were prepared using sesame oil as vehicle. Micronized fluasterone was obtained from Pharmaceutics International, Inc. Five suspensions were prepared—100 mg/kg (13 mg/mL), 200 mg/kg (26.5 mg/mL), 400 mg/kg (52.4 mg/mL), 800 mg/kg (105.5 mg/mL), and 1200 mg/kg (158.3 mg/mL). The fluasterone for each suspension was weighed, placed into a plastic vial, and the required volume of sesame oil was added to the vial. The fluasterone was suspended in the sesame oil with the use of a Tekmar Tissumizer. Magnetic stirrer bars were added to the various suspensions which were stirred on a magnetic stirrer prior to treatment. Control and TPA groups received sesame oil alone.
Female CD-1 mice were obtained from Charles River Laboratories, Wilmington, Mass. at 35-37 days of age.
The mice were housed three per cage in plastic shoebox cages on Alphacel bedding with 12 hours of alternating light and dark in the CAF Animal Facility. The mice had ad libitum access to Purina 5.015 chow and acidified tap water (pH≦2.6). The mice were shaved, weighed and distributed into groups of three. • Control The mice were treated orally with 0.2 mL of sesame oil. One hour after treatment with sesame oil, the mice were treated topically with 0.2 mL of acetone. • TPA The mice were treated orally with 0.2 mL of sesame oil. […] One hour after treatment with fluasterone, the mice were treated topically with 2 μg of TPA in 0.2 mL of acetone.
The mice were sacrificed 20 hours after treatment by an overdose of CO2. Twenty minutes prior to sacrifice, the mice were injected with 60 μCi of [^3H]thymidine (Amersham). The mice were treated with a depilatory to remove any residual hair. A 2×2 cm^2 piece of skin was excised, placed in ice water for 30 seconds, then in 55° C. water for 30 seconds, then in ice water again for 30 seconds. The epidermis was s raped off using a scalpel and the scrapings were placed into ice cold 0.4N TCA. The scrapings were homogenized using a Tekmar Tissumizer (80% power for 30 seconds). The homogenates were centrifuged for 20 minutes at 3,000×g. The precipitates were washed 3× with 0.2N TCA. The TCA was removed and the precipitates were stored at −20° C. overnight. The next day, the precipitates were washed 2× with absolute ethanol. The DNA in each sample was hydrolyzed with 0.5N TCA for 30 minutes at 90°. The tubes were centrifuged for 20 minutes at 3000×g. A 0.2 mL aliquot of each hydrolysate was counted in a LKB Rackbeta scintillation counter using Scintiverse II BD as the counting medium. DNA content was determined by the Burton diphenylamine assay.
102.7 mg of Micronized fluasterone I was weighed using a Mettler AE-50 balance, transferred to a glass scintillation vial, and homogenized in 6.0 mL of carboxymethylcellulose-Tween 80 using a Tekmar Tissumizer (200 mg/kg micronized I suspension, 200 MI). 88.4 mg of micronized fluasterone II was then weighed, transferred to a glass scintillation vial, and homogenized in 5.2 mL of CMC-Tween using a Tekmar Tissumizer (200 mg/kg micronized II suspension, 200 MII).

[3] = PK study in human volunteers (phase I); type: in vivo; details: 12 human volunteers; calculated for 1200 mg oral dose from AUC0-24/mg at 800 mg or 1600 mg daily
Protocol: as §1

[4] = Solubility of fluasterone in solvents and mixed solvents; type: physicochemical; details: thermodynamic from solid
Protocol: Fluasterone: The solubility of fluasterone in various solvents was determined by adding a specific volume of solvent to a weighed amount of fluasterone in a screw-capped glass vial and shaking vigorously for several minutes. Incremental volumes of solvent were added, followed by vigorous shaking, until the fluasterone completely dissolved.
Alternatively solubility was determined by adding a specific volume of solvent to a weighed amount of fluasterone in a screw-capped glass vial and warming the vial on a hot plate with vigorous shaking until the fluasterone dissolved. Fluasterone was considered soluble if it remained in solution after at least a month at room temperature. Although the above procedures may not give precise solubilities, they should give a close approximation of maximum fluasterone solubility.
In these experiments fluasterone solubility was determined by adding fluasterone to a measured volume of solvent in a screw-capped glass vial. The vial was warned on a hot plate with vigorous shaking until the fluasterone dissolved. Fluasterone was considered soluble if it remained in solution after at least a month at room temperature.

[5] = system: fasting plasma triglyceride levels; assay: Phase I/II trial in hypertriglyceridemic patients; type: in vivo, human; details: about 1200 mg oral
Protocol: The lowest effective oral dose of fluasterone which lowers fasting plasma triglycerides in diabetic mice is about 200 mg/kg, which translates into an oral human dose of about 1200 mg.

[6] = system: TPA-stimulated epidermal DNA synthesis in mouse epidermis; assay: TPA-induced epidermal DNA synthesis in mouse epidermis, oral fluasterone; type: in vivo, CD-1 mice; details: Table 20; TPA 2 μg topical after sesame oil and suspension vehicle p.o. only; 20 h; group mean
[7] = Table 4, 100 mg/kg p.o. micronized in sesame oil 1 h before 2 μg TPA, 20 h, group mean
[8] = Table 4, 200 mg/kg p.o. micronized in sesame oil 1 h before 2 μg TPA, 20 h, group mean
[9] = Table 4, 400 mg/kg p.o. micronized in sesame oil 1 h before 2 μg TPA, 20 h, group mean
[10] = Table 4, 800 mg/kg p.o. micronized in sesame oil 1 h before 2 μg TPA, 20 h, group mean
[11] = Table 4, 1200 mg/kg p.o. micronized in sesame oil 1 h before 2 μg TPA, 20 h, group mean
[12] = Table 18, TPA 2 μg topical after CMC-Tween p.o. only, 20 h, single mice

## C[C@]12CCCCC1=CC[C@@H]1[C@@H]2CC[C@]2(C)C(=O)[C@H](F)C[C@@H]12 [Fluasterone, 16α-fluoro-5-androsten-17-one]
[1]
  AUC0-24: 2,242 ngXh/mL
[2]; [7]
  cpm/μg DNA: 539.8 ± 75.9 cpm/μg DNA
  μg DNA: 15.5 ± 3.0 µg
[2]; [8]
  cpm/μg DNA: 185.0 ± 38.2 cpm/μg DNA
  μg DNA: 6.0 ± 1.9 µg
[2]; [9]
  cpm/μg DNA: 208.8 ± 144.2 cpm/μg DNA
  μg DNA: 6.6 ± 2.6 µg
[2]; [10]
  cpm/μg DNA: 634.3 ± 151.6 cpm/μg DNA
  μg DNA: 6.2 ± 1.0 µg
[2]; [11]
  cpm/μg DNA: 850.0 ± 256.0 cpm/μg DNA
  μg DNA: 6.3 ± 1.5 µg
[2]; mouse skin, single oral dose
  lowest effective oral dose which abolishes TPA-stimulated epidermal hyperplasia ([3H]thymidine incorporation and epidermal DNA content): 200 mg/kg
[3]
  AUC0-24: 2,316 ngXh/mL
[4]; 10% Tween 80-90% ethanol (v/v), organic solvent or mixture, room temperature
  solubility: < 10000 µg/mL
[4]; 15% Tween 80-85% ethanol (v/v), organic solvent or mixture, room temperature
  solubility: < 10000 µg/mL
[4]; 20% Tween 80-80% ethanol (v/v), organic solvent or mixture, room temperature
  solubility: > 10000 µg/mL
[4]; 50% Tween 80-50% ethanol (v/v), organic solvent or mixture, room temperature
  solubility: > 14000 µg/mL
[4]; cetyl alcohol:ethanol (10%:90%, w/w), organic solvent or mixture, cetyl alcohol:ethanol (10%:90%, w/w), room temperature
  solubility: < 10000 µg/mL
[4]; cetyl alcohol:ethanol (20%:80%, w/w), organic solvent or mixture, cetyl alcohol:ethanol (20%:80%, w/w), room temperature
  solubility: < 12000 µg/mL
[4]; cetyl alcohol:ethanol mixtures (20-22% cetyl alcohol), organic solvent or mixture, cetyl alcohol:ethanol mixtures (20-22% cetyl alcohol), summary, room temperature
  solubility: > 10000 µg/mL
[4]; dimethyl sulfoxide (DMSO), organic solvent or mixture
  solubility: 3600 µg/mL (≈ 12.4 mM)
[4]; ethanol, organic solvent or mixture
  solubility: 6600 µg/mL (≈ 22.7 mM)
[4]; isopropyl myristate, oil or lipid
  solubility: 16000 µg/mL (≈ 55.1 mM)
[4]; limonene, organic solvent or mixture
  solubility: 22600 µg/mL (≈ 77.8 mM)
[4]; polyethylene glycol 400 (PEG-400), organic solvent or mixture
  solubility: 1100 µg/mL (≈ 3.79 mM)
[4]; propylene glycol, organic solvent or mixture
  solubility: > 500 µg/mL
[5]
  effect on fasting plasma triglyceride levels: significantly lowered

## CCCCCCCCCCCCCC(=O)O[C@@H]1[C@@H](C)[C@@]2(O)[C@@H](C=C(CO)C[C@]3(O)C(=O)C(C)=C[C@@H]23)[C@@H]2C(C)(C)[C@]12OC(C)=O [TPA, 12-O-tetradecanoylphorbol-13-acetate, reference compound]
[2]; Table 4, TPA 2 μg topical, sesame oil p.o. only, 20 h, 2×2 cm2 skin, group mean
  μg DNA: 14.1 ± 1.3 µg
[2]; Table 4, TPA 2 μg topical, sesame oil p.o. only, 20 h, group mean
  cpm/μg DNA: 641.5 ± 115.2 cpm/μg DNA
[2]; [12]
  corrected cpm: 9,877 cpm and 8,235 cpm and 8,699 cpm
  μg DNA/0.2 ml: 28.0 μg DNA/0.2 ml and 31.9 μg DNA/0.2 ml and 28.2 μg DNA/0.2 ml
[2]; Table 18, TPA 2 μg topical after CMC-Tween p.o. only, 20 h, single mice and group mean
  cpm/μg DNA: 351.6 cpm/μg DNA and 258.6 cpm/μg DNA and 308.5 cpm/μg DNA
[2]; Table 18, TPA 2 μg topical after CMC-Tween p.o. only, 20 h, single mice and group mean, group mean
  cpm/μg DNA: 306.1 ± 46.8 cpm/μg DNA
[2]; Table 20, TPA 2 μg topical after sesame oil and suspension vehicle p.o. only, 20 h, group mean
  μg DNA: 13.9 ± 0.3 µg
[6]
  cpm/μg DNA: 374.1 ± 16.8 cpm/μg DNA
  dpm/μg DNA: 603.4 ± 36.8 dpm/μg DNA
